The source of these data is patent publication US11207312B2, “Metallo-beta-lactamase inhibitors and methods of use thereof” (priority 2017, dated 2021).

In one series the target is NDM-1 (Klebsiella pneumoniae, UniProt C7C422). Briefly: biochemical. It counts as biochemical. The note with it: CCF2-FA fluorescence assay, 2 hours at 25° C. The procedure, abridged: (§1)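 In pH 7 phosphate buffer (100 mM) with 10 μM ZnSO4 and 0.005% Tween-20, CCF2-FA hydrolysis (1.25 μM) by 1 pM NDM-1, 2 pM IMP-1 or 30 pM VIM-1 was run 2 h at 25° C with inhibitor from 20 to 0.00063 μM. Ex 405/em 460 nm signal fitted to a 4-parameter curve for IC50.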

In the next series the target is IMP-1 (Serratia marcescens, UniProt P52699). Briefly: biochemical. Particulars: CCF2-FA fluorescence assay, 2 hours at 25° C.; read-out: IMP1 IC50. The procedure, abridged: as §1
A further series deals with VIM-1 (Pseudomonas aeruginosa (strain ATCC 15692 / DSM 22644 / CIP 104116 / JCM 14847 / LMG 12228 / 1C / PRS 101 / PAO1), UniProt A0A0F7KYQ8). The experiment in a line: biochemical. Particulars: CCF2-FA fluorescence assay, 2 hours at 25° C.; read-out: VIM1 IC50. The procedure, abridged: as §1
In another series the target is VIM-2 (Escherichia coli, UniProt Q5U7L7). Briefly: biochemical. Particulars: CCF2-FA fluorescence assay; read-out: VIM2 IC50.
In series [1] the test system is Escherichia coli expressing NDM-1 (CLB30016). It counts as cell-based. Particulars: with imipenem 1 μg/ml; 95% inhibition of bacterial growth. A digest of the protocol: (§2)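 Synergy with imipenem at a fixed 1 μg/ml was scored by absorbance following 22–24 h incubation at 35 °C; the potentiating concentration (MITC95) was the lowest giving 95% growth inhibition.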
Series [2] concerns Klebsiella pneumoniae expressing VIM-1 (IHMA599644). It counts as cell-based. Particulars: with imipenem 1 μg/ml; 95% inhibition of bacterial growth. The procedure, abridged:
as §2

The subject of series [3] is Serratia marcescens expressing IMP-1 (CL5741). It counts as cell-based. The note with it: with imipenem 1 μg/ml; 95% inhibition of bacterial growth. The procedure, abridged:
as §2

Series [4] has as its system P. aeruginosa MB9798 (efflux+, IMP-1 plasmid). The note with it: for MB9798 MITC95 P. aeruginosa uM Efflux WT: efflux + (MB9798) strain, imipenem at 2 μg/mL, in the presence of a class A, C, D serine β-lactamase inhibitor closely related to relebactam; for Efflux ratio: fold difference between efflux+ (MB9798) and efflux− (MB9799) strains. The procedure, abridged: (§3)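 Isogenic P. aeruginosa PAO1 strains (efflux+ and multiple-efflux-pump-disrupted) carrying plasmid IMP-1, with inducible AmpC, tested by broth microdilution. Imipenem and/or ceftazidime fixed, usually at CLSI breakpoint, plus fixed class A/C β-lactamase inhibitor; titrated MBL inhibitor concentration restoring susceptibility recorded and compared between strains as efflux fold difference.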

The test system of series [5] is P. aeruginosa MB9799 (efflux-, IMP-1 plasmid). It counts as cell-based, Pseudomonas aeruginosa. Particulars: efflux − (MB9799) strain; imipenem at 2 μg/mL; in the presence of a class A, C, D serine β-lactamase inhibitor closely related to relebactam. A digest of the protocol:
as §3

IMP-1, sequence (P52699 whole entry, looked up, species assumed): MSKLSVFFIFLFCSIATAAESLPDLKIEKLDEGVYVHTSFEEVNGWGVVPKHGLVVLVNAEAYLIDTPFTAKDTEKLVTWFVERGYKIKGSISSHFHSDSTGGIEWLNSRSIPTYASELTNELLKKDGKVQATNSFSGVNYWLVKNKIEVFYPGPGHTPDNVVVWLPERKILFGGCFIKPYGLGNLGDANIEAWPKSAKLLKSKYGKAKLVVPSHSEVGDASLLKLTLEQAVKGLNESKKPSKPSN
NDM-1, sequence (C7C422 whole entry, looked up, species assumed): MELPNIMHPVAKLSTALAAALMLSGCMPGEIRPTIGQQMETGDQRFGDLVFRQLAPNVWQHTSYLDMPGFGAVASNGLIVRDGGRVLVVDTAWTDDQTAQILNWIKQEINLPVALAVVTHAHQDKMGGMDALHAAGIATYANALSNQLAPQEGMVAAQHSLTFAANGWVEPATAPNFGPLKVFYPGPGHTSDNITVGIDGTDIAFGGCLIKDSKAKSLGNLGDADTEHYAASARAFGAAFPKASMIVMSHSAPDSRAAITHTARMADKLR

A word on the IC50: it is the midpoint of a concentration-inhibition curve. As to `CC(N)C1CCN(c2ccc(S(=O)(=O)NC[C@H](O)CN)c(S(N)(=O)=O)c2-c2nnn[nH]2)CC1` (stereo partly drawn) [Example 50, N1-((R)-3-amino-2-hydroxypropyl)-4-(4-(1-aminoethyl)piper-idin-1-yl)-3-(1H-tetrazol-5-yl)benzene-1,2-disulfonamide], the IC50 on NDM-1 is 4.14 nM; on IMP-1, 2.11 nM; at VIM-1, 0.15 nM; at VIM-2 it was 4.12 nM. Also, the “CLB30016 E. coli MITC95 NDM” value in series [1] worked out at 0.39 µM. The “IHMA599644 K. pneumoniae MITC95 VIM” value in series [2] was found to be 0.78 µM. In series [3], the “CL5741 S. marcescens MITC95 IMP” value is 0.78 µM. For the same molecule, the “MB9798 MITC95 P. aeruginosa uM Efflux WT” value in series [4] came to 0.78 µM. For the same molecule, the Efflux ratio in [4] turned out to be 2.00. In addition, in [5], the “MB9799 MITC95 P. aeruginosa uM Efflux Mutant” value turned out to be 0.39 µM.

As for `COC(=O)C1CCN(c2ccc(S(=O)(=O)N[C@@H]3CCNC3)c(S(N)(=O)=O)c2-c2nn[nH]n2)CCN1.Cl` (stereo partly drawn) [Example 164, Methyl 1-(4-(N-((R)-pyrrolidin-3-yl)sulfamoyl)-3-sulfamoyl-2-(2H-tetrazol-5-yl)phenyl)-1,4-diazepane-5-carboxylate hydrochloride], the IC50 at NDM-1 is 0.63 nM; at IMP-1 it was 0.54 nM; at VIM-1, 0.12 nM; at VIM-2 it was 0.69 nM. Further, the “CLB30016 E. coli MITC95 NDM” value in series [1] came out at 0.39 µM. Further, the “IHMA599644 K. pneumoniae MITC95 VIM” value in [2] worked out at 3.13 µM. Moreover, the “CL5741 S. marcescens MITC95 IMP” value in series [3] amounted to 1.56 µM. For the same molecule, the “MB9798 MITC95 P. aeruginosa uM Efflux WT” value in series [4] is 6.25 µM. In addition, in series [4], the Efflux ratio was found to be 2.00. For the same molecule, in series [5], the “MB9799 MITC95 P. aeruginosa uM Efflux Mutant” value was 3.13 µM.

Take `NC[C@@H](O)CNS(=O)(=O)c1ccc(N2CCC(F)(CO)CC2)c(-c2nn[nH]n2)c1S(N)(=O)=O` [Example 22, (R)-N^1-(3-amino-2-hydroxypropyl)-4-(4-fluoro-4-(hydroxymethyl)piperidin-1-yl)-3-(2H-tetrazol-5-yl)benzene-1,2-disulfonamide]: the IC50 against NDM-1 is 0.45 nM; at IMP-1, 0.7 nM; at VIM-1, 0.35 nM; on VIM-2, 0.79 nM. Also, the “CLB30016 E. coli MITC95 NDM” value in series [1] was found to be 3.13 µM. The “IHMA599644 K. pneumoniae MITC95 VIM” value in series [2] was 6.25 µM. For the same molecule, in series [3], the “CL5741 S. marcescens MITC95 IMP” value turned out to be 1.56 µM. Also, the “MB9798 MITC95 P. aeruginosa uM Efflux WT” value in [4] came out at 1.56 µM. The Efflux ratio in [4] is reported as 1.00. In [5], the “MB9799 MITC95 P. aeruginosa uM Efflux Mutant” value amounted to 1.56 µM.

Regarding `NS(=O)(=O)c1c(S(=O)(=O)N[C@@H]2CCNC2)ccc(N2CCC(C(F)F)CC2)c1-c1nnn[nH]1` [Example 90, 4-[4-(difluoromethyl)piperidin-1-yl]-N1-[(3R)-pyrrolidin-3-yl]-3-(1H-tetrazol-5-yl)benzene-1,2-disulfonamide], the IC50 at NDM-1 turned out to be 0.43 nM; on IMP-1, 0.77 nM; at VIM-1, 0.34 nM; on VIM-2 it was 1.02 nM. The “CLB30016 E. coli MITC95 NDM” value in series [1] worked out at 3.13 µM. Besides, the “IHMA599644 K. pneumoniae MITC95 VIM” value in [2] came out at 3.13 µM. Further, the “CL5741 S. marcescens MITC95 IMP” value in [3] was 3.13 µM. Further, the “MB9798 MITC95 P. aeruginosa uM Efflux WT” value in [4] worked out at 6.25 µM. The Efflux ratio in [4] is listed as 4.00. Moreover, in series [5], the “MB9799 MITC95 P. aeruginosa uM Efflux Mutant” value came to 1.56 µM.

As to `NS(=O)(=O)c1c(S(=O)(=O)N[C@@H]2CCNC2)ccc(N2CCCC(=NO)C2=O)c1-c1nn[nH]n1` [Example 152, (R)-4-(3-(hydroxyimino)-2-oxopiperidin-1-yl)-N1-(pyrrolidin-3-yl)-3-(2H-tetrazol-5-yl)benzene-1,2-disulfonamide], the IC50 is 0.08 nM at NDM-1, 6.8 nM at IMP-1, 0.16 nM on VIM-1 and 0.74 nM on VIM-2. Moreover, the “CLB30016 E. coli MITC95 NDM” value in series [1] stood at 0.39 µM. Besides, the “IHMA599644 K. pneumoniae MITC95 VIM” value in series [2] was 3.13 µM. Further, the “CL5741 S. marcescens MITC95 IMP” value in series [3] is 1.56 µM. Further, the “MB9798 MITC95 P. aeruginosa uM Efflux WT” value in [4] worked out at 3.13 µM. Also, the Efflux ratio in [4] was determined as 2.00. In addition, the “MB9799 MITC95 P. aeruginosa uM Efflux Mutant” value in [5] is 1.56 µM.

For the molecule `NS(=O)(=O)c1c(S(=O)(=O)N[C@@H]2CCNC2)ccc(N2CC[C@@H](CO)C2)c1-c1nnn[nH]1` [Example 70, 4-[(3R)-3-(hydroxymethyl)pyrrolidin-1-yl]-N1-[(3R)-pyrrolidin-3-yl]-3-(1H-tetrazol-5-yl)benzene-1,2-disulfonamide], the half-maximal inhibitory concentration (IC50) came to 0.45 nM against NDM-1, 0.51 nM at IMP-1, 0.57 nM on VIM-1 and 1.25 nM at VIM-2. Moreover, the “CLB30016 E. coli MITC95 NDM” value in series [1] came out at 3.91 µM. Moreover, in series [2], the “IHMA599644 K. pneumoniae MITC95 VIM” value was found to be 7.81 µM. The “CL5741 S. marcescens MITC95 IMP” value in series [3] was 3.91 µM. Further, the “MB9798 MITC95 P. aeruginosa uM Efflux WT” value in [4] is 2.34 µM. Moreover, the Efflux ratio in series [4] came to 1.20. Besides, in [5], the “MB9799 MITC95 P. aeruginosa uM Efflux Mutant” value was 1.95 µM.

As to `NC[C@@H](O)CNS(=O)(=O)c1ccc(N2CC[C@@H](CN)[C@@H](F)C2)c(-c2nn[nH]n2)c1S(N)(=O)=O` (racemic) [Example 6], the IC50 was found to be 1.12 nM on NDM-1, 3.38 nM on IMP-1, 0.17 nM at VIM-1 and 4.19 nM at VIM-2. Further, the “CLB30016 E. coli MITC95 NDM” value in [1] is 0.20 µM. Also, in series [2], the “IHMA599644 K. pneumoniae MITC95 VIM” value was 0.78 µM. Also, in [3], the “CL5741 S. marcescens MITC95 IMP” value turned out to be 0.20 µM. The “MB9798 MITC95 P. aeruginosa uM Efflux WT” value in [4] amounted to 0.78 µM. Further, the Efflux ratio in [4] came to 2.00. In addition, in [5], the “MB9799 MITC95 P. aeruginosa uM Efflux Mutant” value is 0.39 µM.

As to `NCCC1CCN(c2ccc(S(=O)(=O)N[C@@H](CN)CO)c(S(N)(=O)=O)c2-c2nn[nH]n2)CC1` [Example 187, (S)-N1-(1-amino-3-hydroxypropan-2-yl)-4-(4-(2-aminoethyl)piperidin-1-yl)-3-(2H-tetrazol-5-yl)benzene-1,2-disulfonamide], the IC50 was determined as 0.13 nM against NDM-1, 0.24 nM at IMP-1, 0.03 nM at VIM-1 and 0.49 nM at VIM-2. In addition, the “CLB30016 E. coli MITC95 NDM” value in series [1] came to 0.78 µM. Besides, the “IHMA599644 K. pneumoniae MITC95 VIM” value in series [2] is 0.78 µM. For the same molecule, the “CL5741 S. marcescens MITC95 IMP” value in series [3] was found to be 0.78 µM. In addition, the “MB9798 MITC95 P. aeruginosa uM Efflux WT” value in series [4] was 0.39 µM. Further, the Efflux ratio in series [4] came out at 1.00. Besides, in [5], the “MB9799 MITC95 P. aeruginosa uM Efflux Mutant” value came out at 0.39 µM.

`Cl.Cl.NCC1CCN(c2ccc(S(=O)(=O)N[C@@H]3CCNC3)c(S(N)(=O)=O)c2-c2nn[nH]n2)CC1` [Example 135, (R)-4-(4-(aminomethyl)piperidin-1-yl)-N1-(pyrrolidin-3-yl)-3-(2H-tetrazol-5-yl)benzene-1,2-disulfonamide dihydrochloride]: the IC50 is 1.13 nM against NDM-1, 3.43 nM on IMP-1, 0.16 nM at VIM-1 and 3 nM at VIM-2. Also, the “CLB30016 E. coli MITC95 NDM” value in [1] is 0.59 µM. Also, in [2], the “IHMA599644 K. pneumoniae MITC95 VIM” value was determined as 1.17 µM. For the same molecule, in series [3], the “CL5741 S. marcescens MITC95 IMP” value is 0.78 µM. Further, the “MB9798 MITC95 P. aeruginosa uM Efflux WT” value in series [4] was 0.59 µM. Moreover, the Efflux ratio in series [4] turned out to be 1.50. For the same molecule, the “MB9799 MITC95 P. aeruginosa uM Efflux Mutant” value in [5] was 0.39 µM.

Consider `NS(=O)(=O)c1c(S(=O)(=O)C2CNC2)ccc(N2CCCC(CO)C2)c1-c1nnn[nH]1` (stereo not shown) [Example 57, 6-(azetidin-3-ylsulfonyl)-3-[3-(hydroxymethyl)piperidin-1-yl]-2-(1H-tetrazol-5-yl)benzenesulfonamide], for which the IC50 is 2.48 nM on NDM-1, 4.38 nM at IMP-1, 1.44 nM on VIM-1 and 1.87 nM at VIM-2. In addition, in [1], the “CLB30016 E. coli MITC95 NDM” value stood at 3.13 µM. In series [2], the “IHMA599644 K. pneumoniae MITC95 VIM” value turned out to be 12.50 µM. Besides, the “CL5741 S. marcescens MITC95 IMP” value in series [3] was found to be 3.13 µM. For the same molecule, the “MB9798 MITC95 P. aeruginosa uM Efflux WT” value in series [4] worked out at 25.00 µM. In addition, the Efflux ratio in series [4] worked out at 15.99. For the same molecule, in series [5], the “MB9799 MITC95 P. aeruginosa uM Efflux Mutant” value turned out to be 1.56 µM.
